The results in this text go back to ChEMBL document CHEMBL5260839 (J Med Chem, 2019).

Calls of active or inactive are those of the source. No cut-off for these calls is given here. Peptide text beside a SMILES is read from it. * marks the point of attachment. Cbz = O=C(OCc1ccccc1)* Some results are limits rather than exact numbers.

Data set [1] relates to RS4-11. The data set can be described thus: cells. The settings on record: Homo sapiens, RS4-11, 96 h.
The target in data set [2] is T1, E3 ubiquitin-protein ligase Mdm2 (Homo sapiens, UniProt Q00987). The experiment in a line: Inhibition of MDM2 in human RS4-11 cells harbouring wildtype p53 assessed as fold change in MDM2 level at 3 uM incubate for 4 hrs by Western blot analysis (reference value: […]). The class given is cell-based. For orientation: Immunoblotting shows a protein as a band on a membrane.
Target sequence in this assay (Q00987 whole entry, looked up): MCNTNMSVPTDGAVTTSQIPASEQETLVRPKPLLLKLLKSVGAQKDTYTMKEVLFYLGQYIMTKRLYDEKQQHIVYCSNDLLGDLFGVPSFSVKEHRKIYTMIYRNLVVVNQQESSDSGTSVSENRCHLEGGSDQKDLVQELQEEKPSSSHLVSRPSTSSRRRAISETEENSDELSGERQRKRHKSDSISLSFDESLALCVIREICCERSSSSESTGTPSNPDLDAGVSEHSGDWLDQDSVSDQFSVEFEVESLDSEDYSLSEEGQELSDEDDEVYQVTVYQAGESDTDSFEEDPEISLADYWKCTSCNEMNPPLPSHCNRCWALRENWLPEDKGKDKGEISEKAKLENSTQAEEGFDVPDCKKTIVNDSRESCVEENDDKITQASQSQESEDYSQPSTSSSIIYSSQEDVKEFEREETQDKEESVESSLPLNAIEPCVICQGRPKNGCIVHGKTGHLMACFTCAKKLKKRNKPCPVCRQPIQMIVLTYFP

The target in data set [3] is T1, E3 ubiquitin-protein ligase Mdm2. The experiment in a line: Inhibition of MDM2 in human RS4-11 cells harbouring wildtype p53 assessed as fold change in p53 accumulation at 3 uM incubated for 4 hrs by Western blot analysis (reference value: 1). In kind it is cell-based.
Target sequence in this assay (Q00987 whole entry, looked up): as above
The subject of data set [4] is RS4-11. The data set can be described thus: Potency index, ratio of MI-1061 IC50 to test compound IC50 for inhibition of cell growth in human RS4-11 cells incubated for 4 days by lactate dehydrogenase based WST-8 assay. The class given is functional. The settings on record: time 4 day. For orientation: Formazan colour is commonly taken as a measure of viable cells.

Data set [5] relates to RS4-11. The data set can be described thus: Potency index, ratio of MI-1242 IC50 to test compound IC50 for inhibition of cell growth in human RS4-11 cells incubated for 4 days by lactate dehydrogenase based WST-8 assay. The settings on record: time 4 day. In kind it is functional.
Data set [6] concerns the target T1, E3 ubiquitin-protein ligase Mdm2. The experiment in a line: Inhibition of MDM2 in human RS4-11 cells harbouring wildtype p53 assessed as fold change in MDM2 level at 1 uM incubate for 4 hrs by Western blot analysis (reference value: […]). In kind it is cell-based.
Target sequence in this assay (Q00987 whole entry, looked up): as above
Data set [7] shares this target. The data set can be described thus: Inhibition of MDM2 in human RS4-11 cells harbouring wildtype p53 assessed as fold change in p53 accumulation at 1 uM incubated for 4 hrs by Western blot analysis (reference value: 1). The class given is cell-based.
Target sequence in this assay (Q00987 whole entry, looked up): as above
For data set [8] the target is unchanged. The experiment in a line: Inhibition of MDM2 in human RS4-11 cells harbouring wildtype p53 assessed as fold change in MDM2 level at 10 uM incubate for 4 hrs by Western blot analysis (reference value: […]). In kind it is cell-based.
Target sequence in this assay (Q00987 whole entry, looked up): as above
The target is the same in data set [9]. The data set can be described thus: Inhibition of MDM2 in human RS4-11 cells harbouring wildtype p53 assessed as fold change in p53 accumulation at 10 uM incubated for 4 hrs by Western blot analysis (reference value: […]). The class given is cell-based.
Target sequence in this assay (Q00987 whole entry, looked up): as above
Data set [10] shares this target. The data set can be described thus: Binding affinity to recombinant human MDM2 (1 to 118 residues) assessed as inhibition constant using FAM-tagged p-53 based peptide as substrate by fluorescence polarization based assay.
Target sequence in this assay (Q00987 whole entry): as the sequence (Q00987 whole entry, looked up) above
For data set [11], the system named is RS4-11. The experiment in a line: Induction of apoptosis in human RS4-11 cells incubated for 24 hrs by Annexin-V/PI staining based flow cytometric analysis. The class given is functional, cell-based. For orientation: Flow cytometry measures light scatter and fluorescence of single cells or particles in a stream.
For data set [12], the system named is RS4-11. The data set can be described thus: Inhibition of cell growth in human RS4-11 cells incubated for 4 days in the presence of lenalidomide by Lactate dehydrogenase based WST-8 assay. In kind it is functional. The settings on record: time 4.0 day.
Another data set concerns MV4-11. The data set can be described thus: Inhibition of cell growth in human MV4-11 cells incubated for 4 days in the presence of lenalidomide by Lactate dehydrogenase based WST-8 assay. In kind it is functional. The settings on record: time 4.0 day.
The test system of data set [13] is RS4-11. The experiment in a line: Antitumor activity against human RS4-11 cells xenografted in mouse assessed as reduction in tumor growth at 100 mg/kg, po administered daily for 5 days starting from day 26. The class given is functional, organism-based. The settings on record: time 5.0 day.
The nature of data set [14]: Toxicity in mouse xenografted with human RS4-11 cells assessed as weight loss at 100 mg/kg, po administered once daily for 5 days. In kind it is organism-based. The settings on record: in vivo, 120 h, time 5 day.
Data set [15] can be described thus: Toxicity in mouse xenografted with human RS4-11 cells assessed as signs of toxicity at 100 mg/kg, po administered once daily for 5 days. In kind it is organism-based. The settings on record: in vivo, 120 h, time 5 day.
In a further data set the test system is MOLM-13. The experiment in a line: cells. The settings on record: Homo sapiens, MOLM-13, 96 h.
The subject of another data set is SIG-M5. The data set can be described thus: cells. The settings on record: Homo sapiens, SIG-M5, 96 h.
A further data set relates to MONO-MAC-6. The data set can be described thus: cells. The settings on record: Homo sapiens, MONO-MAC-6, 96 h.
For the next data set, the system named is KG-1. The experiment in a line: cells. The settings on record: Homo sapiens, KG-1, 96 h.

For `Cc1ncsc1-c1ccc([C@H](C)NC(=O)[C@@H]2C[C@@H](O)CN2C(=O)[C@@H](NC(=O)CCCOCCOCCOCCNC(=O)c2ccc(NC(=O)[C@@H]3NC4(CCCCC4)[C@@]4(C(=O)Nc5cc(Cl)ccc54)[C@H]3c3cccc(Cl)c3F)cc2)C(C)(C)C)cc1`, inhibition in the data set on RS4-11 [1] was half-maximal at 340 nM (IC50). The same measure, in the same setting: for `O=C1CCC(N2C(=O)c3cccc(NCCCCCCNC(=O)c4ccc(NC(=O)[C@@H]5NC6(CCCCC6)[C@@]6(C(=O)Nc7cc(Cl)ccc76)[C@H]5c5cccc(Cl)c5F)cc4)c3C2=O)C(=O)N1` (some centres not stated) the value was 22 nM. On to `NS(=O)(=O)OC[C@@H]1C[C@@H](n2ccc3c(N[C@H]4CCc5ccccc54)ncnc32)C[C@@H]1O`, for which the fold change (FC) is 2.4 in data set [2] and 5.1 in [3]. As for `O=C1CCC(N2C(=O)c3cccc(NCCCCNC(=O)c4ccc(NC(=O)[C@@H]5NC6(CCCCC6)[C@@]6(C(=O)Nc7cc(Cl)ccc76)[C@H]5c5cccc(Cl)c5F)cc4)c3C2=O)C(=O)N1` (some centres not stated), the “Ratio IC50” value in the data set with RS4-11 [4] and in the data set with RS4-11 [5] was 10 throughout. For the same molecule, the IC50 in the data set on RS4-11 [1] turned out to be 10 nM. As for `CC(C)C[C@H](NC(=O)[C@H](CCc1ccccc1)NC(=O)CN1CCOCC1)C(=O)N[C@@H](Cc1ccccc1)C(=O)N[C@@H](CC(C)C)C(=O)[C@@]1(C)CO1`, the fold change (FC) in data set [6] turned out to be 3.6; in data set [7], 8.5. Turning to `O=C1CCC(N2Cc3c(C#CCCCNC(=O)c4ccc(NC(=O)[C@H]5NC6(CCCCC6)[C@]6(C(=O)Nc7cc(Cl)ccc76)[C@@H]5c5cccc(Cl)c5F)cc4)cccc3C2=O)C(=O)N1` (some centres not stated), in the data set on RS4-11 [1], the IC50 is greater than 10000 nM. In the case of `CC(C)C[C@@H](C=O)NC(=O)[C@H](CC(C)C)NC(=O)[C@H](CC(C)C)NC(=O)OCc1ccccc1` (Cbz-Leu-Leu-Leu-aldehyde), the fold change (FC) in data set [8] worked out at 2.9; in [9], 6.9. The molecule `Cc1ncsc1-c1ccc([C@H](C)NC(=O)[C@@H]2C[C@@H](O)CN2C(=O)[C@@H](NC(=O)CCCCNC(=O)c2ccc(NC(=O)[C@@H]3NC4(CCCCC4)[C@@]4(C(=O)Nc5cc(Cl)ccc54)[C@H]3c3cccc(Cl)c3F)cc2)C(C)(C)C)cc1` gave an IC50 with RS4-11 [1] of 1200 nM. With `O=C1CCC(N2C(=O)c3cccc(NCCOCCOCCNC(=O)c4ccc(NC(=O)[C@@H]5NC6(CCCCC6)[C@@]6(C(=O)Nc7cc(Cl)ccc76)[C@H]5c5cccc(Cl)c5F)cc4)c3C2=O)C(=O)N1` (some centres not stated), the “Ratio IC50” value with RS4-11 [4] and in the data set with RS4-11 [5] was 10 in each case. Further, the IC50 with RS4-11 [1] was 7 nM.

In the case of `O=C1CCC(N2C(=O)c3cccc(NCCOCCNC(=O)c4ccc(NC(=O)[C@@H]5NC6(CCCCC6)[C@@]6(C(=O)Nc7cc(Cl)ccc76)[C@H]5c5cccc(Cl)c5F)cc4)c3C2=O)C(=O)N1` (some centres not stated), the IC50 with RS4-11 [1] came to 8 nM. On to `CNC(=O)c1ccc(NC(=O)[C@@H]2NC3(CCCCC3)[C@@]3(C(=O)Nc4cc(Cl)ccc43)[C@H]2c2cccc(Cl)c2F)cc1`, for which, in data set [10], the Ki was 2.7 nM. In addition, in the data set with RS4-11 [1], the midpoint of inhibition, the IC50, lay at 89 nM. `O=C1CCC(N2C(=O)c3cccc(NCCCCCNC(=O)c4ccc(NC(=O)[C@@H]5NC6(CCCCC6)[C@@]6(C(=O)Nc7cc(Cl)ccc76)[C@H]5c5cccc(Cl)c5F)cc4)c3C2=O)C(=O)N1` (some centres not stated) showed an IC50 in the data set with RS4-11 [1] of 12 nM. As to `O=C1CCC(N2Cc3c(C#CCCNC(=O)c4ccc(NC(=O)[C@@H]5NC6(CCCCC6)[C@@]6(C(=O)Nc7cc(Cl)ccc76)[C@H]5c5cccc(Cl)c5F)cc4)cccc3C2=O)C(=O)N1` (some centres not stated), the IC50 in the data set on RS4-11 [1] came to 3.9 nM. Same read-out and setting: for `O=C1CCC(N2C(=O)c3cccc(NCCNC(=O)c4ccc(NC(=O)[C@@H]5NC6(CCCCC6)[C@@]6(C(=O)Nc7cc(Cl)ccc76)[C@H]5c5cccc(Cl)c5F)cc4)c3C2=O)C(=O)N1` (some centres not stated) the value was 15 nM; for `CN1C(=O)CCC(N2Cc3c(C#CCCCNC(=O)c4ccc(NC(=O)[C@@H]5NC6(CCCCC6)[C@@]6(C(=O)Nc7cc(Cl)ccc76)[C@H]5c5cccc(Cl)c5F)cc4)cccc3C2=O)C1=O` (some centres not stated), 1200 nM.

As for `O=C1CCC(N2C(=O)c3cccc(NCCOCCOCCOCCNC(=O)c4ccc(NC(=O)[C@@H]5NC6(CCCCC6)[C@@]6(C(=O)Nc7cc(Cl)ccc76)[C@H]5c5cccc(Cl)c5F)cc4)c3C2=O)C(=O)N1` (some centres not stated), the IC50 with RS4-11 [1] was found to be 5 nM. Same read-out and setting: for `O=C1CCC(N2Cc3ccc(CC#CCCCNC(=O)c4ccc(NC(=O)[C@@H]5NC6(CCCCC6)[C@@]6(C(=O)Nc7cc(Cl)ccc76)[C@H]5c5cccc(Cl)c5F)cc4)cc3C2=O)C(=O)N1` (some centres not stated) the value was 5 nM; for `O=C1CCC(N2C(=O)c3cccc(NCCCNC(=O)c4ccc(NC(=O)[C@@H]5NC6(CCCCC6)[C@@]6(C(=O)Nc7cc(Cl)ccc76)C5c5cccc(Cl)c5F)cc4)c3C2=O)C(=O)N1` (single isomer, unassigned), 9 nM; for `Cc1ncsc1-c1ccc([C@H](C)NC(=O)[C@@H]2C[C@@H](O)CN2C(=O)[C@@H](NC(=O)CCOCCOCCNC(=O)c2ccc(NC(=O)[C@@H]3NC4(CCCCC4)[C@@]4(C(=O)Nc5cc(Cl)ccc54)[C@H]3c3cccc(Cl)c3F)cc2)C(C)(C)C)cc1`, 500 nM. As to `O=C(O)c1ccc(NC(=O)[C@@H]2NC3(CCCCC3)[C@@]3(C(=O)Nc4cc(Cl)ccc43)[C@H]2c2cccc(Cl)c2F)cc1`, the values for the Activity entry (in the data set on RS4-11 [11]; in [14]; in data set [15]) were “Dose-Dependent Effect”, “Non-Toxic” and “Non-Toxic”, respectively. Also, the inhibition entry in the data set on RS4-11 [12] and in the data set with MV4-11 was “Active” each time. Besides, in the data set with RS4-11 [13], the result was Active. Also, the IC50 is 76.8 nM in the data set on MOLM-13, 106 nM in the data set with SIG-M5, greater than 10000 nM in the data set with MONO-MAC-6 and greater than 10000 nM in the data set on KG-1.

For the molecule `O=C1CCC(N2C(=O)c3cccc(NCCCCCCCNC(=O)c4ccc(NC(=O)[C@@H]5NC6(CCCCC6)[C@@]6(C(=O)Nc7cc(Cl)ccc76)[C@H]5c5cccc(Cl)c5F)cc4)c3C2=O)C(=O)N1` (some centres not stated), the IC50 in the data set on RS4-11 [1] was found to be 100 nM. The molecule `O=C1CCC(N2C(=O)c3cccc(CCCCCNC(=O)c4ccc(NC(=O)[C@@H]5NC6(CCCCC6)[C@@]6(C(=O)Nc7cc(Cl)ccc76)[C@H]5c5cccc(Cl)c5F)cc4)c3C2=O)C(=O)N1` (some centres not stated) displayed an IC50 with RS4-11 [1] of 29 nM. In turn, `O=C1CCC(N2Cc3cccc(NCCCCNC(=O)c4ccc(NC(=O)[C@@H]5NC6(CCCCC6)[C@@]6(C(=O)Nc7cc(Cl)ccc76)[C@H]5c5cccc(Cl)c5F)cc4)c3C2=O)C(=O)N1` (some centres not stated) returned an IC50 in the data set with RS4-11 [1] of 5 nM. Molecule `O=C1CCC(N2Cc3cc(CC#CCCCNC(=O)c4ccc(NC(=O)[C@@H]5NC6(CCCCC6)[C@@]6(C(=O)Nc7cc(Cl)ccc76)[C@H]5c5cccc(Cl)c5F)cc4)ccc3C2=O)C(=O)N1` (some centres not stated) came in with an IC50 in the data set on RS4-11 [1] of 5 nM. Same read-out and setting: for `O=C1CCC(N2C(=O)c3cccc(NC(=O)c4ccc(NC(=O)[C@@H]5NC6(CCCCC6)[C@@]6(C(=O)Nc7cc(Cl)ccc76)[C@H]5c5cccc(Cl)c5F)cc4)c3C2=O)C(=O)N1` (some centres not stated) the value was 68.4 nM.

Usually IC50 stands for the point on the concentration scale where inhibition reaches its midpoint. One may read the Ki as a measure of affinity in units of concentration, obtained from inhibition or displacement.
